For 36 molecules, Ki results are on record in patent US9283222B2 (priority 2006, dated 2016).

This assay has as its target Recombinant Human Poly(ADP-Ribose) Polymerase (PARP), PARP-1 (Homo sapiens (Human), UniProt P09874). The settings on record: read-out: PARP-1 (Ki).
Setting [1] is: Table 1, text calls the values EC50s.

Read-outs that look alike come from different tables or passages of the source.

Sequence of Recombinant Human Poly(ADP-Ribose) Polymerase (PARP), PARP-1 (P09874 whole entry): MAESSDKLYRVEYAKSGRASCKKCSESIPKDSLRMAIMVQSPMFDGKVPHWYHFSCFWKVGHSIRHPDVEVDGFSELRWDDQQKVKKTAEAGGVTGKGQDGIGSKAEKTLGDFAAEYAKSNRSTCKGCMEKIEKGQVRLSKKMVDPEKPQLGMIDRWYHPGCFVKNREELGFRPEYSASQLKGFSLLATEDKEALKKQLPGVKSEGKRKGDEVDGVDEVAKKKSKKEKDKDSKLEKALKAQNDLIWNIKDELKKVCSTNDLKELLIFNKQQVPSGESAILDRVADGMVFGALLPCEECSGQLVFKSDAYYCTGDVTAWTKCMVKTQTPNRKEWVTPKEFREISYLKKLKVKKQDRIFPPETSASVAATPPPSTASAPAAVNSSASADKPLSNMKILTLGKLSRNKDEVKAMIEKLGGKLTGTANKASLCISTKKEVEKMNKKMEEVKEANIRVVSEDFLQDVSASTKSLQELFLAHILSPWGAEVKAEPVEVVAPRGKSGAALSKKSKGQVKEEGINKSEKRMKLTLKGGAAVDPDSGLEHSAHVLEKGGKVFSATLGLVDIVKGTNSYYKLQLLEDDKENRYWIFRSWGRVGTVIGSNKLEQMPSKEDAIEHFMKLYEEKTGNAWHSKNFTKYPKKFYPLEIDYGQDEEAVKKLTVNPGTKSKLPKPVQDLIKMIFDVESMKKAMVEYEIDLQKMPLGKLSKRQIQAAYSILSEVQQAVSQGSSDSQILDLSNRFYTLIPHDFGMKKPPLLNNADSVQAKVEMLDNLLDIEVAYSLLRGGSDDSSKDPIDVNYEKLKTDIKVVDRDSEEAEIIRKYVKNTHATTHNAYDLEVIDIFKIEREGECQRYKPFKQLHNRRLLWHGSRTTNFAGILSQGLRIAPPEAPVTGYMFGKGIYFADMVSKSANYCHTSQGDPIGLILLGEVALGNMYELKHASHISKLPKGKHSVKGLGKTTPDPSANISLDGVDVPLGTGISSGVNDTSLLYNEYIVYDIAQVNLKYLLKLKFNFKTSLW

For `O=C(NCCN1CCCC1)c1cccc(Cc2n[nH]c(=O)c3c2CCCC3)c1` [Example 52, 3-((4-oxo-3,4,5,6,7,8-hexahydrophthalazin-1-yl)methyl)-N-(2-pyrrolidin-1-ylethyl)benzamide], the inhibitory constant (Ki) (in general, the equilibrium dissociation constant of an inhibitor or competing ligand from its target) under setting [1] was 13 nM.

For the molecule `COc1ccc(S(=O)(=O)N2CCN(C(=O)c3cc(Cc4n[nH]c(=O)c5c4NCCC5)ccc3F)CC2)cc1` [Example 600, 8-[4-fluoro-3-({4-[(4-methoxyphenyl)sulfonyl]piperazin-1-yl}carbonyl)benzyl]-2,3,4,6-tetrahydropyrido[2,3-d]pyridazin-5(1H)-one], the inhibition constant Ki under setting [1] was found to be 0.7 nM.

As for `CO[C@@H](C(=O)Nc1cccc(Cc2n[nH]c(=O)c3c2CCCC3)c1)c1ccccc1` [Example 151, (2R)-2-methoxy-N-(3-((4-oxo-3,4,5,6,7,8-hexahydrophthalazin-1-yl)methyl)phenyl)-2-phenylacetamide], the Ki under setting [1] is 531 nM.

For the molecule `O=C(c1cccc(Cc2n[nH]c(=O)c3c2CCCC3)c1)N1CCN(c2ccccn2)CC1` [Example 441, 4-(3-((4-pyridin-2-ylpiperazin-1-yl)carbonyl)benzyl)-5,6,7,8-tetrahydrophthalazin-1(2H)-one], under setting [1], the Ki was determined as 3 nM.

With `O=C(c1cc(Cc2n[nH]c(=O)c3c2CCCC3)ccc1F)N1CCN(c2ccc(F)cc2F)CC1` [Example 524, 4-(3-{[4-(2,4-difluorophenyl)piperazin-1-yl]carbonyl}-4-fluorobenzyl)-5,6,7,8-tetrahydrophthalazin-1(2H)-one], the Ki under setting [1] is 5 nM.

On to `O=C(NCCc1ccccn1)c1cccc(Cc2n[nH]c(=O)c3c2CCCC3)c1` [Example 379, 3-((4-oxo-3,4,5,6,7,8-hexahydrophthalazin-1-yl)methyl)-N-(2-pyridin-2-ylethyl)benzamide], for which the Ki under setting [1] was found to be 20 nM.

Regarding `O=C(c1cc(Cc2n[nH]c(=O)c3c2CCCC3)ccc1F)N1CCN(c2ncncn2)CC1` [Example 669, 4-(4-fluoro-3-{[4-(1,3,5-triazin-2-yl)piperazin-1-yl]carbonyl}benzyl)-5,6,7,8-tetrahydrophthalazin-1(2H)-one], under setting [1], the Ki turned out to be 1.2 nM.

`Cc1cccc(O)c1NC(=O)c1cccc(Cc2n[nH]c(=O)c3c2CCCC3)c1` [Example 348, N-(2-hydroxy-6-methylphenyl)-3-((4-oxo-3,4,5,6,7,8-hexahydrophthalazin-1-yl)methyl)benzamide]: the Ki under setting [1] is 259 nM.

`CCC(=O)N1CCN(C(=O)c2cc(Cc3n[nH]c(=O)c4c3NCCC4)ccc2F)CC1` [Example 597, 8-{4-fluoro-3-[(4-propionylpiperazin-1-yl)carbonyl]benzyl}-2,3,4,6-tetrahydropyrido[2,3-d]pyridazin-5(1H)-one]: under setting [1], the inhibition constant (Ki) is 0.8 nM.

On to `O=C1CCCN1c1cc(-c2n[nH]c(=O)c3c2CCCC3)ccc1F` [Example 491, 4-(4-fluoro-3-(2-oxopyrrolidin-1-yl)phenyl)-5,6,7,8-tetrahydrophthalazin-1(2H)-one], for which the inhibitory constant (Ki) under setting [1] turned out to be 191 nM.

For `O=C(COc1ccccc1)N1CCN(C(=O)c2cc(Cc3n[nH]c(=O)c4c3CCCC4)ccc2F)CC1` [Example 590, 4-(4-fluoro-3-{[4-(phenoxyacetyl)piperazin-1-yl]carbonyl}benzyl)-5,6,7,8-tetrahydrophthalazin-1(2H)-one], under setting [1], the Ki turned out to be 1.9 nM.

Turning to `Nc1cc(Cc2n[nH]c(=O)c3c2CCCC3)ccc1Cl` [Example 278, 4-(3-amino-4-chlorobenzyl)-5,6,7,8-tetrahydrophthalazin-1(2H)-one], the Ki under setting [1] came to 185 nM.

`O=C(c1cc(Cc2n[nH]c(=O)c3c2CCCC3)ccc1F)N1CCN(CCOc2ccccc2)CC1` [Example 577, 4-(4-fluoro-3-{[4-(2-phenoxyethyl)piperazin-1-yl]carbonyl}benzyl)-5,6,7,8-tetrahydrophthalazin-1(2H)-one]: the Ki under setting [1] was found to be 3 nM.

`COc1ccc(C(=O)Nc2cccc(Cc3n[nH]c(=O)c4c3CCCC4)c2)cc1F` [Example 229, 3-fluoro-4-methoxy-N-(3-((4-oxo-3,4,5,6,7,8-hexahydrophthalazin-1-yl)methyl)phenyl)benzamide]: the Ki under setting [1] came out at 49 nM.

As for `COc1ccc(CCN(C)C(=O)c2cccc(Cc3n[nH]c(=O)c4c3CCCC4)c2)cc1OC` [Example 427, N-(2-(3,4-dimethoxyphenyl)ethyl)-N-methyl-3-((4-oxo-3,4,5,6,7,8-hexahydrophthalazin-1-yl)methyl)benzamide], the inhibition constant Ki under setting [1] amounted to 22 nM.

As to `O=C(OCc1ccccc1)N1CCN(C(=O)c2cc(Cc3n[nH]c(=O)c4c3CCCC4)ccc2F)CC1` [Example 543, benzyl 4-{2-fluoro-5-[(4-oxo-3,4,5,6,7,8-hexahydrophthalazin-1-yl)methyl]benzoyl}piperazine-1-carboxylate], the Ki turned out to be 5 nM.

`CC1CCCN1C(=O)c1cccc(Cc2n[nH]c(=O)c3c2CCCC3)c1` (stereo not drawn) [Example 53, 4-(3-((2-methylpyrrolidin-1-yl)carbonyl)benzyl)-5,6,7,8-tetrahydrophthalazin-1(2H)-one]: the inhibition constant Ki under setting [1] came to 10 nM.

Consider `O=C(Nc1ccc2cn[nH]c2c1)c1cccc(Cc2n[nH]c(=O)c3c2CCCC3)c1` [Example 368, N-1H-indazol-6-yl-3-((4-oxo-3,4,5,6,7,8-hexahydrophthalazin-1-yl)methyl)benzamide], for which the Ki under setting [1] stood at 56 nM.

Regarding `CC(C)c1ccc(NC(=O)c2cccc(Cc3n[nH]c(=O)c4c3CCCC4)c2)cc1` [Example 334, N-(4-isopropylphenyl)-3-((4-oxo-3,4,5,6,7,8-hexahydrophthalazin-1-yl)methyl)benzamide], the Ki under setting [1] turned out to be 191 nM.

Take `O=C(Nc1cccc(Cc2n[nH]c(=O)c3c2CCCC3)c1)c1ccccc1CCc1ccccc1` [Example 242, N-(3-((4-oxo-3,4,5,6,7,8-hexahydrophthalazin-1-yl)methyl)phenyl)-2-(2-phenylethyl)benzamide]: the inhibition constant Ki under setting [1] was 610 nM.

Consider `COc1ccc(OC)c(CCNC(=O)c2cccc(Cc3n[nH]c(=O)c4c3CCCC4)c2)c1` [Example 404, N-(2-(2,5-dimethoxyphenyl)ethyl)-3-((4-oxo-3,4,5,6,7,8-hexahydrophthalazin-1-yl)methyl)benzamide], for which, under setting [1], the Ki stood at 55 nM.

As to `CC(C)n1nnc2cc(C(=O)N3CCN(C(=O)c4cc(Cc5n[nH]c(=O)c6c5NCCC6)ccc4F)CC3)ccc21` [Example 643], the inhibition constant (Ki) under setting [1] turned out to be 1.2 nM.

Take `CN1CCN(C(=O)Nc2cc(Cc3n[nH]c(=O)c4c3CCCC4)ccc2F)CC1` [Example 584, N-{2-fluoro-5-[(4-oxo-3,4,5,6,7,8-hexahydrophthalazin-1-yl)methyl]phenyl}-4-methylpiperazine-1-carboxamide]: the Ki under setting [1] amounted to 68 nM.

With `COc1ccc(NC(C)=O)cc1NC(=O)c1cccc(Cc2n[nH]c(=O)c3c2CCCC3)c1` [Example 357, N-(5-(acetylamino)-2-methoxyphenyl)-3-((4-oxo-3,4,5,6,7,8-hexahydrophthalazin-1-yl)methyl)benzamide], the inhibition constant (Ki) under setting [1] is 402 nM.

Take `O=C(COc1ccccc1)N1CCN(C(=O)c2cc(Cc3n[nH]c(=O)c4c3NCCC4)ccc2F)CC1` [Example 591, 8-(4-fluoro-3-{[4-(phenoxyacetyl)piperazin-1-yl]carbonyl}benzyl)-2,3,4,6-tetrahydropyrido[2,3-d]pyridazin-5(1H)-one]: the inhibition constant (Ki) under setting [1] is 0.5 nM.

On to `O=C(c1cnc(Cl)c(O)c1)N1CCN(C(=O)c2cc(Cc3n[nH]c(=O)c4c3NCCC4)ccc2F)CC1` [Example 651], for which the Ki under setting [1] is 1.1 nM.

`CCCc1ccccc1NC(=O)c1cccc(Cc2n[nH]c(=O)c3c2CCCC3)c1` [Example 332, 3-((4-oxo-3,4,5,6,7,8-hexahydrophthalazin-1-yl)methyl)-N-(2-propylphenyl)benzamide]: the Ki under setting [1] came to 635 nM.

Take `O=C(c1cncnc1)N1CCCN(C(=O)c2cc(Cc3n[nH]c(=O)c4c3NCCC4)ccc2F)CC1` [Example 685, 8-(4-fluoro-3-{[4-(pyrimidin-5-ylcarbonyl)-1,4-diazepan-1-yl]carbonyl}benzyl)-2,3,4,6-tetrahydropyrido[2,3-d]pyridazin-5(1H)-one]: under setting [1], the Ki stood at 2.2 nM.

Turning to `CCc1ccc(NC(=O)c2cccc(Cc3n[nH]c(=O)c4c3CCCC4)c2)cc1` [Example 331], the inhibition constant (Ki) under setting [1] came to 140 nM.

As for `CCNC(=O)c1cc(Cc2n[nH]c(=O)c3c2CCCC3)ccn1` [Example 75, N-ethyl-4-((4-oxo-3,4,5,6,7,8-hexahydrophthalazin-1-yl)methyl)pyridine-2-carboxamide], the Ki under setting [1] came out at 56 nM.

On to `O=C(Nc1cccc(Cc2n[nH]c(=O)c3c2CCCC3)c1)c1ccc(I)cc1` [Example 247, 4-iodo-N-(3-((4-oxo-3,4,5,6,7,8-hexahydrophthalazin-1-yl)methyl)phenyl)benzamide], for which the Ki under setting [1] worked out at 48 nM.

Consider `O=C(c1cc(Cc2n[nH]c(=O)c3c2NCCC3)ccc1F)N1CCN(CCN2CCOCC2)CC1` [Example 566, 8-(4-fluoro-3-{[4-(2-morpholin-4-ylethyl)piperazin-1-yl]carbonyl}benzyl)-2,3,4,6-tetrahydropyrido[2,3-d]pyridazin-5(1H)-one], for which the inhibition constant (Ki) under setting [1] came out at 4 nM.

Regarding `CC(C)NC(=O)c1cc(Cc2n[nH]c(=O)c3c2CCCC3)ccn1` [Example 76, N-isopropyl-4-((4-oxo-3,4,5,6,7,8-hexahydrophthalazin-1-yl)methyl)pyridine-2-carboxamide], the Ki under setting [1] amounted to 473 nM.

With `Cc1c(C(=O)Nc2cc(Cc3n[nH]c(=O)c4c3CCCC4)ccc2F)cnn1-c1ccccc1` [Example 454, N-(2-fluoro-5-((4-oxo-3,4,5,6,7,8-hexahydrophthalazin-1-yl)methyl)phenyl)-5-methyl-1-phenyl-1H-pyrazole-4-carboxamide], the inhibition constant Ki under setting [1] came to 16 nM.

Turning to `O=C(NC1CNC1)c1cccc(Cc2n[nH]c(=O)c3c2CCCC3)c1` [Example 56, N-azetidin-3-yl-3-((4-oxo-3,4,5,6,7,8-hexahydrophthalazin-1-yl)methyl)benzamide], the inhibition constant (Ki) under setting [1] was 5 nM.

As for `CCN(CC)C(=O)N1CCN(C(=O)c2cc(Cc3n[nH]c(=O)c4c3NCCC4)ccc2F)CC1` [Example 557, N,N-diethyl-4-{2-fluoro-5-[(5-oxo-1,2,3,4,5,6-hexahydropyrido[2,3-d]pyridazin-8-yl)methyl]benzoyl}piperazine-1-carboxamide], under setting [1], the inhibition constant Ki came out at 1.1 nM.
